{"source": "patent US6960574B2", "about": "“Antagonists of RF-amide neuropeptides” (University of Florida, priority 2002, dated 2005)", "note": "Square brackets hold non-standard residues; d marks the D form. Peptide text beside a SMILES is read from it. * marks the point of attachment. ξ: configuration not given here. Dansyl = CN(C)c1cccc2c(S(=O)(=O)*)cccc12; ξL = CC(C)CC(N)C(=O)O", "data": [{"tested_on": "receptor labeled by the radioiodinated analogue of 1 (4, [125I]-YLFQPQRF-NH2); neuropeptide FF receptor", "test": "Competitive radioligand binding against 4 ([125I]Y8F-amide)", "conditions": "mixture-based positional scanning; difference from averaged radioligand displacement of whole library (0); about 80 a.u. = 10-fold change in Ki", "units": {"Relative Binding Index (RBI)": "a.u."}, "values": [{"smiles": "CN(C)c1cccc2c(S(=O)(=O)N[C@@H](CCCCN)C(=O)N[C@@H](CO)C(=O)N[C@@H](CCCNC(=N)N)C(N)=O)cccc12", "note": "[Dansyl-KSR-amide] (Dansyl-Lys-Ser-Arg-NH2)", "Relative Binding Index (RBI)": 45}, {"smiles": "CN(C)c1cccc2c(S(=O)(=O)N[C@@H](CC(=O)O)C(=O)N[C@@H](CCC(N)=O)C(=O)N[C@@H](CCCNC(=N)N)C(N)=O)cccc12", "note": "[Dansyl-DQR-amide] (Dansyl-Asp-Gln-Arg-NH2)", "Relative Binding Index (RBI)": 8}, {"smiles": "CSCC[C@H](NS(=O)(=O)c1cccc2c(N(C)C)cccc12)C(=O)N[C@@H](Cc1ccccc1)C(=O)N[C@@H](CCCNC(=N)N)C(N)=O", "note": "[Dansyl-MFR-amide] (Dansyl-Met-Phe-Arg-NH2)", "Relative Binding Index (RBI)": "−45"}, {"smiles": "CN(C)c1cccc2c(S(=O)(=O)N[C@@H](Cc3ccccc3)C(=O)N[C@@H](CCC(=O)O)C(=O)N[C@@H](CCCNC(=N)N)C(N)=O)cccc12", "note": "[Dansyl-FER-amide] (Dansyl-Phe-Glu-Arg-NH2)", "Relative Binding Index (RBI)": 9}, {"smiles": "CC(C)CC(NC(=O)[C@H](CC(N)=O)NS(=O)(=O)c1cccc2c(N(C)C)cccc12)C(=O)N[C@@H](CCCNC(=N)N)C(N)=O", "note": "(stereo partly shown) [Dansyl-NLR-amide] (Dansyl-Asn-[ξL]-Arg-NH2)", "Relative Binding Index (RBI)": 4}, {"smiles": "CN(C)c1cccc2c(S(=O)(=O)NCC(=O)NCC(=O)N[C@@H](CCCNC(=N)N)C(N)=O)cccc12", "note": "[Dansyl-GGR-amide]", "Relative Binding Index (RBI)": 30}, {"smiles": "CCC(C)C(NC(=O)C(CCCCN)NS(=O)(=O)c1cccc2c(N(C)C)cccc12)C(=O)NC(CCCNC(=N)N)C(N)=O", "note": "(stereo not drawn) [Dansyl-KIR-amide] (Dansyl-Lys-Ile-Arg-NH2; configuration not given here)", "Relative Binding Index (RBI)": 31}, {"smiles": "CC[C@H](C)[C@H](NC(=O)[C@@H](NS(=O)(=O)c1cccc2c(N(C)C)cccc12)[C@@H](C)CC)C(=O)N[C@@H](CCCNC(=N)N)C(N)=O", "note": "[Dansyl-IIR-amide] (Dansyl-Ile-Ile-Arg-NH2)", "Relative Binding Index (RBI)": "−5"}, {"smiles": "CN(C)c1cccc2c(S(=O)(=O)N[C@@H](CC(=O)O)C(=O)N[C@@H](Cc3c[nH]c4ccccc34)C(=O)N[C@@H](CCCNC(=N)N)C(N)=O)cccc12", "note": "[Dansyl-DWR-amide] (Dansyl-Asp-Trp-Arg-NH2)", "Relative Binding Index (RBI)": 3}, {"smiles": "CN(C)c1cccc2c(S(=O)(=O)N[C@@H](Cc3cnc[nH]3)C(=O)N[C@@H](CCC(N)=O)C(=O)N[C@@H](CCCNC(=N)N)C(N)=O)cccc12", "note": "[Dansyl-HQR-amide] (Dansyl-His-Gln-Arg-NH2)", "Relative Binding Index (RBI)": 30}, {"smiles": "CC(C)[C@H](NS(=O)(=O)c1cccc2c(N(C)C)cccc12)C(=O)N[C@H](C(=O)N[C@@H](CCCNC(=N)N)C(N)=O)[C@@H](C)O", "note": "[Dansyl-VTR-amide] (Dansyl-Val-Thr-Arg-NH2)", "Relative Binding Index (RBI)": 1}, {"smiles": "CC(C)[C@H](NS(=O)(=O)c1cccc2c(N(C)C)cccc12)C(=O)N[C@@H](CO)C(=O)N[C@@H](CCCNC(=N)N)C(N)=O", "note": "[Dansyl-VSR-amide]", "Relative Binding Index (RBI)": 16}, {"smiles": "CSCC[C@H](NS(=O)(=O)c1cccc2c(N(C)C)cccc12)C(=O)N[C@@H](CC(N)=O)C(=O)N[C@@H](CCCNC(=N)N)C(N)=O", "note": "[Dansyl-MNR-amide]", "Relative Binding Index (RBI)": "−43"}, {"smiles": "CC[C@H](C)[C@H](NS(=O)(=O)c1cccc2c(N(C)C)cccc12)C(=O)N[C@@H](CC(=O)O)C(=O)N[C@@H](CCCNC(=N)N)C(N)=O", "note": "[Dansyl-IDR-amide] (Dansyl-Ile-Asp-Arg-NH2)", "Relative Binding Index (RBI)": "−29"}, {"smiles": "CN(C)c1cccc2c(S(=O)(=O)N[C@@H](Cc3c[nH]c4ccccc34)C(=O)N[C@@H](CC(=O)O)C(=O)N[C@@H](CCCNC(=N)N)C(N)=O)cccc12", "note": "[Dansyl-WDR-amide] (Dansyl-Trp-Asp-Arg-NH2)", "Relative Binding Index (RBI)": "−9"}, {"smiles": "CC(C)C[C@H](NS(=O)(=O)c1cccc2c(N(C)C)cccc12)C(=O)N[C@@H](Cc1ccccc1)C(=O)N[C@@H](CCCNC(=N)N)C(N)=O", "note": "[Dansyl-LFR-amide] (Dansyl-Leu-Phe-Arg-NH2)", "Relative Binding Index (RBI)": "−33"}]}]}
